According to US6737383B1, “Herbicidal oxadiazolidines” (priority 1999, dated 2004):

Legend:
giant foxtail = assay: Test B pre/postemergence giant foxtail; format: in vivo, Setaria faberii
Summary of the method: (§1)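 Herbicidal effect was estimated by eye on a ten-point control scale after plants spent twelve to sixteen days in a greenhouse following soil or foliar treatment. Foliar sprays targeted plants at one to four leaves; all doses were formulated in a non-phytotoxic solvent with surfactant.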

wheat = assay: Test B pre/postemergence wheat; format: in vivo, Triticum aestivum
Summary of the method: as §1

wild oat = assay: Test B pre/postemergence wild oat; format: in vivo, Avena fatua
Summary of the method: as §1

pigweed = assay: Test B pre/postemergence pigweed; format: in vivo, Amaranthus retroflexus
Summary of the method: as §1

soybean = assay: Test B pre/postemergence soybean; format: in vivo, Glycine max
Summary of the method: as §1

rape = assay: Test B pre/postemergence rape; format: in vivo, Brassica napus
Summary of the method: as §1

sugar beet = assay: Test B pre/postemergence sugar beet; format: in vivo, Beta vulgaris
Summary of the method: as §1

morningglory = assay: Test B pre/postemergence morningglory; format: in vivo, Ipomoea hederacea
Summary of the method: as §1

surinam grass = assay: Test B pre/postemergence surinam grass; format: in vivo, Brachiaria decumbens
Summary of the method: as §1

blackgrass = assay: Test B pre/postemergence blackgrass; format: in vivo, Alopecurus myosuroides
Summary of the method: as §1

velvetleaf = assay: Test B pre/postemergence velvetleaf; format: in vivo, Abutilon theophrasti
Summary of the method: as §1

corn = assay: Test B pre/postemergence corn; format: in vivo, Zea mays
Summary of the method: as §1

purple nutsedge = assay: Test B pre/postemergence purple nutsedge; format: in vivo, Cyperus rotundus
Summary of the method: as §1

bedstraw = assay: Test B pre/postemergence bedstraw; format: in vivo, Galium aparine
Summary of the method: as §1

cocklebur = assay: Test B pre/postemergence cocklebur; format: in vivo, Xanthium strumarium
Summary of the method: as §1

crabgrass = assay: Test B pre/postemergence crabgrass; format: in vivo, Digitaria sanguinalis
Summary of the method: as §1

[1] = Postemergence, Rate 62 g/ha, scale 0 to 10, 0 is no effect, 10 is complete control
[2] = Postemergence, Rate 125 g/ha, scale of 0 to 10 where 0 is no effect and 10 is complete control
[3] = Preemergence, Rate 125 g/ha, scale of 0 to 10 where 0 is no effect and 10 is complete control
[4] = Preemergence, Rate 250 g/ha, scale 0 (no effect) to 10 (complete control)
[5] = Rate 62 g/ha, Preemergence, scale 0 to 10
[6] = Rate 250 g/ha, Postemergence, scale 0 to 10, 0 is no effect, 10 is complete control
[7] = Rate 500 g/ha, Postemergence, scale 0 to 10, 0 is no effect, 10 is complete control
[8] = Rate 500 g/ha, Preemergence, scale 0 to 10 (0 no effect, 10 complete control)
[9] = Postemergence, Rate 500 g/ha, scale 0 (no effect) to 10 (complete control)
[10] = Postemergence, Rate 1000 g/ha, scale 0 to 10 (0 no effect, 10 complete control)
[11] = Rate 125 g/ha, Preemergence, scale 0 to 10 (0 no effect, 10 complete control)
[12] = Rate 1000 g/ha, Preemergence, scale 0 to 10 (0 no effect, 10 complete control)

SMILES: CC(C)N(C(=O)n1oc(=O)n(CC(F)F)c1=O)c1ccccc1 [Compound 746]
- Plant response rating, Giant foxtail (giant foxtail; [1]): 6
- Giant foxtail plant response rating (giant foxtail; [2]): 8
- Plant response rating, Giant foxtail (giant foxtail; [3]): 10
- Giant foxtail plant response rating (giant foxtail; [4]): 10
- Giant foxtail plant response rating (giant foxtail; [5]): 10
- Giant foxtail plant response rating (giant foxtail; [6]): 9
- Giant foxtail plant response rating (giant foxtail; [7]): 9
- Giant foxtail plant response rating (giant foxtail; [8]): 10
- Plant response rating, Wheat (wheat; [1]): 0
- Wheat plant response rating (wheat; [2]): 4
- Plant response rating, Wheat (wheat; [3]): 7
- Wheat plant response rating (wheat; [4]): 8
- Wheat plant response rating (wheat; [5]): 6
- Wheat plant response rating (wheat; [7]): 6
- Plant response rating, Wild oats (wild oat; [1]): 0
- Wild oats plant response rating (wild oat; [2]): 2
- Plant response rating, Wild oats (wild oat; [3]): 10
- Wild oats plant response rating (wild oat; [4]): 10
- Wild oats plant response rating (wild oat; [5]): 7
- Wild oats plant response rating (wild oat; [6]): 6
- Wild oats plant response rating (wild oat; [7]): 7
- Plant response rating, Redroot pigweed (pigweed; [1]): 6
- Redroot pigweed plant response rating (pigweed; [2]): 5
- Plant response rating, Redroot pigweed (pigweed; [3]): 10
- Redroot pigweed plant response rating (pigweed; [4]): 10
- Redroot pigweed plant response rating (pigweed; [5]): 10
- Redroot pigweed plant response rating (pigweed; [6]): 8
- Redroot pigweed plant response rating (pigweed; [7]): 9
- Plant response rating, Soybean (soybean; [1]): 2
- Soybean plant response rating (soybean; [2]): 3
- Plant response rating, Soybean (soybean; [3]): 0
- Soybean plant response rating (soybean; [4]): 5
- Soybean plant response rating (soybean; [5]): 0
- Soybean plant response rating (soybean; [6]): 4
- Soybean plant response rating (soybean; [7]): 6
- Soybean plant response rating (soybean; [8]): 5
- Plant response rating, Rape (rape; [1]): 4
- Rape plant response rating (rape; [2]): 4
- Plant response rating, Rape (rape; [3]): 9
- Rape plant response rating (rape; [4]): 9
- Rape plant response rating (rape; [5]): 2
- Rape plant response rating (rape; [6]): 7
- Rape plant response rating (rape; [7]): 7
- Plant response rating, Sugarbeets (sugar beet; [1]): 0
- Sugarbeets plant response rating (sugar beet; [2]): 0
- Plant response rating, Sugarbeets (sugar beet; [3]): 7
- Sugarbeets plant response rating (sugar beet; [4]): 7
- Sugarbeets plant response rating (sugar beet; [5]): 5
- Sugarbeets plant response rating (sugar beet; [6]): 4
- Sugarbeets plant response rating (sugar beet; [7]): 4
- Plant response rating, Morningglory (morningglory; [1]): 4
- Morningglory plant response rating (morningglory; [2]): 8
- Plant response rating, Morningglory (morningglory; [3]): 4
- Morningglory plant response rating (morningglory; [4]): 6
- Morningglory plant response rating (morningglory; [5]): 0
- Morningglory plant response rating (morningglory; [6]): 10
- Morningglory plant response rating (morningglory; [7]): 10
- Morningglory plant response rating (morningglory; [8]): 8
- Plant response rating, B. signalgrass (surinam grass; [1]): 3
- B. signalgrass plant response rating (surinam grass; [2]): 4
- B. signalgrass plant response rating (surinam grass; Preemergence, Rate 62 g/ha, scale of 0 to 10 where 0 is no effect and 10 is complete control): 7
- Plant response rating, B. signalgrass (surinam grass; [3]): 9
- B. signalgrass plant response rating (surinam grass; [4]): 9
- B. signalgrass plant response rating (surinam grass; [6]): 6
- B. signalgrass plant response rating (surinam grass; [7]): 8
- Plant response rating, Blackgrass (blackgrass; [1]): 5
- Blackgrass plant response rating (blackgrass; [2]): 7
- Plant response rating, Blackgrass (blackgrass; [3]): 9
- Blackgrass plant response rating (blackgrass; [4]): 10
- Blackgrass plant response rating (blackgrass; [5]): 9
- Blackgrass plant response rating (blackgrass; [6]): 8
- Blackgrass plant response rating (blackgrass; [7]): 8
- Plant response rating, Velvetleaf (velvetleaf; [1]): 2
- Velvetleaf plant response rating (velvetleaf; [2]): 6
- Plant response rating, Velvetleaf (velvetleaf; [3]): 6
- Velvetleaf plant response rating (velvetleaf; [4]): 7
- Velvetleaf plant response rating (velvetleaf; [5]): 4
- Velvetleaf plant response rating (velvetleaf; [6]): 6
- Velvetleaf plant response rating (velvetleaf; [7]): 7
- Velvetleaf plant response rating (velvetleaf; [8]): 8
- Plant response rating, Corn (corn; [1]): 0
- Corn plant response rating (corn; [2]): 0
- Plant response rating, Corn (corn; [3]): 3
- Corn plant response rating (corn; [4]): 3
- Corn plant response rating (corn; [5]): 0
- Corn plant response rating (corn; [6]): 4
- Corn plant response rating (corn; [7]): 5
- Corn plant response rating (corn; [8]): 4
- Plant response rating, Nutsedge (purple nutsedge; [1]): 0
- Nutsedge plant response rating (purple nutsedge; [2]): 0
- Plant response rating, Nutsedge (purple nutsedge; [3]): 3
- Nutsedge plant response rating (purple nutsedge; [5]): 0
- Nutsedge plant response rating (purple nutsedge; [6]): 2
- Nutsedge plant response rating (purple nutsedge; [7]): 4
- Nutsedge plant response rating (purple nutsedge; [8]): 5
- Bedstraw plant response rating (bedstraw; [2]): 7
- Bedstraw plant response rating (bedstraw; [5]): 8
- Bedstraw plant response rating (bedstraw; [6]): 8
- Bedstraw plant response rating (bedstraw; [7]): 9
- Plant response rating, Cocklebur (cocklebur; [1]): 0
- Cocklebur plant response rating (cocklebur; [2]): 2
- Plant response rating, Cocklebur (cocklebur; [3]): 0
- Cocklebur plant response rating (cocklebur; [4]): 0
- Cocklebur plant response rating (cocklebur; [6]): 2
- Cocklebur plant response rating (cocklebur; [7]): 4
- Cocklebur plant response rating (cocklebur; [8]): 4
- Plant response rating, Crabgrass (crabgrass; [1]): 7
- Crabgrass plant response rating (crabgrass; [2]): 9
- Plant response rating, Crabgrass (crabgrass; [3]): 10
- Crabgrass plant response rating (crabgrass; [4]): 10
- Crabgrass plant response rating (crabgrass; [5]): 9
- Crabgrass plant response rating (crabgrass; [6]): 9
- Crabgrass plant response rating (crabgrass; [7]): 10
- Crabgrass plant response rating (crabgrass; [8]): 10

SMILES: COC(=O)N(C)CCn1c(=O)on(C(=O)N(c2ccccc2)C(C)C)c1=O [Compound 775]
- Giant foxtail plant response rating (giant foxtail; [2]): 7
- Giant foxtail plant response rating (giant foxtail; [9]): 9
- Giant foxtail plant response rating (giant foxtail; [10]): 9
- Giant foxtail plant response rating (giant foxtail; [4]): 10
- Giant foxtail plant response rating (giant foxtail; [11]): 9
- Giant foxtail plant response rating (giant foxtail; [6]): 7
- Giant foxtail plant response rating (giant foxtail; [8]): 10
- Plant response rating, Giant foxtail (giant foxtail; [12]): 10
- Wheat plant response rating (wheat; [9]): 0
- Wheat plant response rating (wheat; [11]): 0
- Wheat plant response rating (wheat; [6]): 0
- Wheat plant response rating (wheat; [8]): 8
- Plant response rating, Wheat (wheat; [12]): 9
- Wild oats plant response rating (wild oat; [9]): 0
- Wild oats plant response rating (wild oat; [11]): 2
- Wild oats plant response rating (wild oat; [6]): 0
- Wild oats plant response rating (wild oat; [8]): 8
- Plant response rating, Wild oats (wild oat; [12]): 9
- Redroot pigweed plant response rating (pigweed; [2]): 3
- Redroot pigweed plant response rating (pigweed; [9]): 3
- Redroot pigweed plant response rating (pigweed; [10]): 6
- Redroot pigweed plant response rating (pigweed; [11]): 0
- Redroot pigweed plant response rating (pigweed; [6]): 3
- Redroot pigweed plant response rating (pigweed; [8]): 9
- Plant response rating, Redroot pigweed (pigweed; [12]): 10
- Soybean plant response rating (soybean; [9]): 6
- Soybean plant response rating (soybean; [11]): 0
- Soybean plant response rating (soybean; [6]): 6
- Soybean plant response rating (soybean; [8]): 1
- Plant response rating, Soybean (soybean; [12]): 2
- Rape plant response rating (rape; [2]): 0
- Rape plant response rating (rape; [9]): 0
- Rape plant response rating (rape; [10]): 0
- Rape plant response rating (rape; [11]): 0
- Rape plant response rating (rape; [6]): 0
- Rape plant response rating (rape; [8]): 0
- Plant response rating, Rape (rape; [12]): 7
- Sugarbeets plant response rating (sugar beet; [9]): 0
- Sugarbeets plant response rating (sugar beet; [11]): 0
- Sugarbeets plant response rating (sugar beet; [6]): 0
- Sugarbeets plant response rating (sugar beet; [8]): 3
- Plant response rating, Sugarbeets (sugar beet; [12]): 3
- Morningglory plant response rating (morningglory; [2]): 5
- Morningglory plant response rating (morningglory; [9]): 6
- Morningglory plant response rating (morningglory; [10]): 8
- Morningglory plant response rating (morningglory; [11]): 0
- Morningglory plant response rating (morningglory; [6]): 6
- Morningglory plant response rating (morningglory; [8]): 2
- Plant response rating, Morningglory (morningglory; [12]): 5
- B. signalgrass plant response rating (surinam grass; [2]): 2
- B. signalgrass plant response rating (surinam grass; [10]): 9
- B. signalgrass plant response rating (surinam grass; [6]): 3
- B. signalgrass plant response rating (surinam grass; [7]): 3
- Blackgrass plant response rating (blackgrass; [2]): 0
- Blackgrass plant response rating (blackgrass; [9]): 7
- Blackgrass plant response rating (blackgrass; [10]): 4
- Blackgrass plant response rating (blackgrass; [4]): 9
- Blackgrass plant response rating (blackgrass; [11]): 5
- Blackgrass plant response rating (blackgrass; [6]): 4
- Blackgrass plant response rating (blackgrass; [8]): 10
- Plant response rating, Blackgrass (blackgrass; [12]): 10
- Velvetleaf plant response rating (velvetleaf; [9]): 2
- Velvetleaf plant response rating (velvetleaf; [11]): 0
- Velvetleaf plant response rating (velvetleaf; [6]): 2
- Velvetleaf plant response rating (velvetleaf; [8]): 0
- Plant response rating, Velvetleaf (velvetleaf; [12]): 4
- Corn plant response rating (corn; [2]): 0
- Corn plant response rating (corn; [9]): 0
- Corn plant response rating (corn; [10]): 0
- Corn plant response rating (corn; [4]): 0
- Corn plant response rating (corn; [11]): 0
- Corn plant response rating (corn; [6]): 0
- Corn plant response rating (corn; [8]): 3
- Plant response rating, Corn (corn; [12]): 4
- Nutsedge plant response rating (purple nutsedge; [2]): 0
- Nutsedge plant response rating (purple nutsedge; [10]): 0
- Nutsedge plant response rating (purple nutsedge; [11]): 0
- Nutsedge plant response rating (purple nutsedge; [6]): 0
- Nutsedge plant response rating (purple nutsedge; [8]): 0
- Plant response rating, Nutsedge (purple nutsedge; [12]): 9
- Bedstraw plant response rating (bedstraw; [2]): 0
- Bedstraw plant response rating (bedstraw; [9]): 7
- Bedstraw plant response rating (bedstraw; [10]): 7
- Bedstraw plant response rating (bedstraw; [4]): 0
- Bedstraw plant response rating (bedstraw; [11]): 0
- Bedstraw plant response rating (bedstraw; [6]): 2
- Bedstraw plant response rating (bedstraw; [8]): 2
- Plant response rating, Bedstraw (bedstraw; [12]): 2
- Cocklebur plant response rating (cocklebur; [2]): 0
- Cocklebur plant response rating (cocklebur; [9]): 0
- Cocklebur plant response rating (cocklebur; [10]): 0
- Cocklebur plant response rating (cocklebur; [4]): 0
- Cocklebur plant response rating (cocklebur; [11]): 0
- Cocklebur plant response rating (cocklebur; [6]): 0
- Cocklebur plant response rating (cocklebur; [8]): 0
- Plant response rating, Cocklebur (cocklebur; [12]): 0
- Crabgrass plant response rating (crabgrass; [2]): 3
- Crabgrass plant response rating (crabgrass; [9]): 9
- Crabgrass plant response rating (crabgrass; [10]): 9
- Crabgrass plant response rating (crabgrass; [4]): 9
- Crabgrass plant response rating (crabgrass; [11]): 9
- Crabgrass plant response rating (crabgrass; [6]): 7
- Crabgrass plant response rating (crabgrass; [8]): 10
- Plant response rating, Crabgrass (crabgrass; [12]): 10
